Data on eight molecules can be found in ChEMBL document CHEMBL1201862, “PubChem BioAssay data set” (2004).

Test systems include K562; OVCAR-5; MOLT-4; HOP-92; UACC-257; EKVX; DU-145; HOP-62; CCRF-CEM; SF-295; SR; T47D; NCI-H23; M14; COLO 205; A498; SF-539; SK-MEL-5; SNB-75; NCI/ADR-RES.
What all share (experiment): NCI-60 cell line screen, 48 h

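Test compounds were applied to cells in 96-well plates for 48 hours at 5 doses. GI50: concentration for 50% inhibition of growth.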 Calls of active or inactive are those of the source. Cut-off read from the data, not from the text of the source: active = GI50 up to about 1.1 µM and inactive = higher.

As for `CC1(C)C(=O)/C=C\C(=O)C(C)(C)C(=O)/C=C\C(=O)C(C)(C)C2=CC=C(O2)C(C)(C)C(=O)/C=C\C1=O`, the GI50 in the assay on K562 was 1.63 µM (inactive); with OVCAR-5, 20.8 µM (inactive); with MOLT-4 it was 1.27 µM (inactive); with HOP-92 it was 1.8 µM (inactive); in the assay with UACC-257 it was 5.71 µM (inactive); in the assay with EKVX, 5.21 µM (inactive). For the same molecule, the GI50 is 17.9 µM (inactive) in the assay with DU-145; 24.3 µM (inactive) in the assay on HOP-62; 0.368 µM (active) with CCRF-CEM; 17.3 µM (inactive) in the assay with SF-295; 1.22 µM (inactive) in the assay with SR; 0.0775 µM (active) with T47D. In addition, the GI50 was 5.55 µM (inactive) with NCI-H23; 2.21 µM (inactive) in the assay on M14; 2.29 µM (inactive) with COLO 205; 16.8 µM (inactive) in the assay on A498; 9.62 µM (inactive) with SF-539; 7.85 µM (inactive) in the assay with SK-MEL-5.
For the molecule `Cc1ccc(C(=O)N2CCN(C(=O)c3ccc(C)cc3)c3ccccc32)cc1`, the GI50 in the assay with K562 is 2.55 µM (inactive); with SNB-75 it was 4.68 µM (inactive); in the assay with OVCAR-5, > 63.7 µM (inactive); with MOLT-4 it was 3.07 µM (inactive); in the assay on HOP-92, 16.4 µM (inactive); with UACC-257, 4.56 µM (inactive). The GI50 was 20.2 µM (inactive) in the assay with EKVX; 3.35 µM (inactive) with DU-145; 6.43 µM (inactive) with HOP-62; 1.6 µM (inactive) in the assay on CCRF-CEM; 3.09 µM (inactive) in the assay on SF-295; 0.547 µM (active) in the assay with SR. In addition, the GI50 in the assay on T47D is 6.43 µM (inactive); in the assay on NCI-H23 it was 4.52 µM (inactive); with M14, 4.57 µM (inactive); with COLO 205, 3.39 µM (inactive); with A498 it was 5.2 µM (inactive); with SF-539, 2.42 µM (inactive). Moreover, in the assay with SK-MEL-5, the GI50 was 3.15 µM (inactive).
`COc1ccccc1NC(=S)N/N=C(/C)c1ccccn1`: the GI50 in the assay with K562 was < 0.01 µM (active); in the assay with SNB-75 it was 1.45 µM (inactive); in the assay with MOLT-4, < 0.01 µM (active); in the assay with HOP-92, 6.93 µM (inactive); in the assay on UACC-257, < 0.01 µM (active); with EKVX it was 0.268 µM (active). In addition, the GI50 with DU-145 was 1.28 µM (inactive); in the assay with HOP-62 it was < 0.0127 µM (active); in the assay with CCRF-CEM it was < 0.01 µM (active); in the assay with SF-295, 0.0771 µM (active); in the assay on T47D, < 0.01 µM (active); in the assay on NCI-H23, < 0.0185 µM (active). Moreover, the GI50 with M14 is < 0.01 µM (active); with COLO 205 it was < 0.0119 µM (active); in the assay with SF-539 it was 0.371 µM (active); with SK-MEL-5 it was < 0.041 µM (active); in the assay with NCI/ADR-RES, < 0.01 µM (active).
As for `Nc1csc(-c2scc3c2OCCO3)c1N`, the GI50 in the assay on K562 is 24.4 µM (inactive); in the assay on OVCAR-5, 17.6 µM (inactive); in the assay with MOLT-4, 27.8 µM (inactive); with HOP-92, 19.4 µM (inactive); in the assay on UACC-257 it was 16.7 µM (inactive); with EKVX it was 18.2 µM (inactive). The GI50 in the assay on DU-145 is 19.8 µM (inactive); with HOP-62 it was 15.6 µM (inactive); in the assay on SF-295, 17.7 µM (inactive); in the assay with SR it was 28.6 µM (inactive); in the assay with NCI-H23, 15.5 µM (inactive); in the assay with M14, 17.8 µM (inactive). Further, the GI50 with COLO 205 is 28.8 µM (inactive); in the assay on A498 it was 17.6 µM (inactive); with SF-539, 24.9 µM (inactive); in the assay on SK-MEL-5, 14.9 µM (inactive); in the assay on NCI/ADR-RES it was 22.6 µM (inactive).
In the case of `COc1cc(-c2coc3c(OC)c(OC4OC(COC5OC(C)C(O)C(O)C5O)C(O)C(O)C4O)c(OC)c(O)c3c2=O)cc(C)c1O` (configuration not stated), the GI50 in the assay with K562 is 13.4 µM (inactive); in the assay with SNB-75, 16 µM (inactive); in the assay with OVCAR-5, 21.7 µM (inactive); in the assay on MOLT-4 it was 3.73 µM (inactive); with HOP-92, 19.2 µM (inactive); in the assay on UACC-257 it was 22.3 µM (inactive). Moreover, the GI50 in the assay on EKVX was 17.2 µM (inactive); in the assay with DU-145, 19.6 µM (inactive); in the assay on HOP-62 it was 22.1 µM (inactive); with CCRF-CEM, 5.93 µM (inactive); with SF-295 it was 16.6 µM (inactive); with T47D, 15.5 µM (inactive). Further, the GI50 is 13.1 µM (inactive) with NCI-H23; 15.5 µM (inactive) with M14; 19.6 µM (inactive) with COLO 205; 21.3 µM (inactive) in the assay with SF-539; 12.6 µM (inactive) in the assay with SK-MEL-5; 17.9 µM (inactive) in the assay with NCI/ADR-RES.
`Cc1cccc2c(=O)c3cccc(CC(=O)O)c3oc12`: the GI50 with K562, in the assay on MOLT-4, in the assay on HOP-92, in the assay with UACC-257, with EKVX and in the assay with HOP-62 was > 100 µM (inactive) in each case. Moreover, the GI50 in the assay with CCRF-CEM, in the assay with SF-295, with SR, in the assay on T47D, in the assay on NCI-H23 and with M14 was > 100 µM (inactive) in each case. In addition, the GI50 with COLO 205, in the assay with A498, in the assay with SF-539, in the assay on SK-MEL-5 and in the assay on NCI/ADR-RES was > 100 µM (inactive) in each case.
`c1ccc2c(c1)OC(N1CCCC1)c1cnc(N3CCCC3)nc1-2` (configuration not stated): the GI50 is 34.3 µM (inactive) in the assay on K562; 15.2 µM (inactive) in the assay on SNB-75; 76 µM (inactive) in the assay on OVCAR-5; 24 µM (inactive) in the assay with MOLT-4; 13.6 µM (inactive) in the assay with HOP-92; 20.6 µM (inactive) with UACC-257. Also, the GI50 with EKVX was 19.4 µM (inactive); with DU-145, 49.9 µM (inactive); with HOP-62 it was 68.2 µM (inactive); in the assay on CCRF-CEM it was 23.8 µM (inactive); in the assay with SF-295, 30.4 µM (inactive); with SR, 29.7 µM (inactive). Besides, the GI50 was 22.5 µM (inactive) with T47D; 37 µM (inactive) in the assay with NCI-H23; 50.9 µM (inactive) with M14; 31.3 µM (inactive) in the assay with COLO 205; 26.5 µM (inactive) in the assay with A498; 68.1 µM (inactive) in the assay with SF-539.
On to `c1ccc([P+](CCSCCSCC[P+](c2ccccc2)(c2ccccc2)c2ccccc2)(c2ccccc2)c2ccccc2)cc1`, for which the GI50 with K562 was 53.5 µM (inactive); with SNB-75 it was > 100 µM (inactive); with OVCAR-5, > 100 µM (inactive); in the assay on MOLT-4 it was > 100 µM (inactive); in the assay with HOP-92, > 100 µM (inactive); in the assay with UACC-257 it was > 100 µM (inactive). For the same molecule, the GI50 with EKVX is > 100 µM (inactive); in the assay on DU-145, > 100 µM (inactive); in the assay on HOP-62, > 100 µM (inactive); in the assay with SF-295, 33 µM (inactive); in the assay with T47D, > 100 µM (inactive); in the assay on NCI-H23, > 100 µM (inactive). The GI50 in the assay on M14, in the assay on COLO 205, in the assay on A498, in the assay with SF-539, in the assay with SK-MEL-5 and with NCI/ADR-RES was > 100 µM (inactive) in each case.
